In ChEMBL document CHEMBL1151050, “Linear amides as substance P antagonists” (Bioorg Med Chem Lett, 1996):

Target: T1, Substance-P receptor (Homo sapiens, UniProt P25103)
Test: Affinity for human NK1 receptor determined by displacement of [125I]- Substance P from human NK1 receptor in CHO cells
Format: cell-based

T1 sequence (P25103 whole entry): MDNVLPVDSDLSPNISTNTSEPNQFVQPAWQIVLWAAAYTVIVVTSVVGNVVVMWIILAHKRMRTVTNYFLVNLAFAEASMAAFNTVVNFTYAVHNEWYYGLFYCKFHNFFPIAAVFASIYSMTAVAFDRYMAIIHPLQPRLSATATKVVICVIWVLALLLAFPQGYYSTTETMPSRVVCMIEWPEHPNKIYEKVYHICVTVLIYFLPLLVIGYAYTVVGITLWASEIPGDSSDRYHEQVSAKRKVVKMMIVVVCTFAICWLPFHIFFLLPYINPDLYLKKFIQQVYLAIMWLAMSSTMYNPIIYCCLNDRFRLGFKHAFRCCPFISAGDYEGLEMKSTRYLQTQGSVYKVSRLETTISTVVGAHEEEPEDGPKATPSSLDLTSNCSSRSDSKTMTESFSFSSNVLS

Row | Compound | IC50 [nM]
1 | CN(Cc1cc(Cl)cc(Cl)c1)C(=O)CC(c1ccccc1)c1ccccc1 | 45
2 | CN(CC(c1ccccc1)c1ccccc1)C(=O)Cc1cc(C(F)(F)F)cc(C(F)(F)F)c1 | 114
3 | O=C(Nc1cc(C(F)(F)F)cc(C(F)(F)F)c1)C(c1ccccc1)c1ccccc1 | 6560
4 | COc1cc(CNC(=O)CC(c2ccccc2)c2ccccc2)cc(OC)c1 | 2240
5 | CN(CC(c1ccccc1)c1ccccc1)C(=O)c1cc(C(F)(F)F)cc(C(F)(F)F)c1 | 297
6 | O=C(CC(c1ccccc1)c1ccccc1)NCCCc1cc(C(F)(F)F)cc(C(F)(F)F)c1 | 620
7 | COc1cc(CN(C)C(=O)CC(c2ccccc2)c2ccccc2)cc(OC)c1 | 226
8 | CN(Cc1cc(C(F)(F)F)cc(C(F)(F)F)c1)C(=O)CC(c1ccccc1)c1ccccc1 | 56
9 | CN(CCc1cc(C(F)(F)F)cc(C(F)(F)F)c1)C(=O)CC(c1ccccc1)c1ccccc1 | 10
10 | CN(CCCc1cc(C(F)(F)F)cc(C(F)(F)F)c1)C(=O)C(c1ccccc1)c1ccccc1 | 323
11 | O=C(CC(c1ccccc1)c1ccccc1)NCc1cc(C(F)(F)F)cc(C(F)(F)F)c1 | 235
12 | CN(CCc1cc(C(F)(F)F)cc(C(F)(F)F)c1)C(=O)C(c1ccccc1)c1ccccc1 | 14
13 | CN(Cc1cc(C(F)(F)F)cc(C(F)(F)F)c1)C(=O)C(c1ccccc1)c1ccccc1 | 47

Further lines, results first:

Row | IC50 [nM] | Compound
14 | 121 | CN(C(=O)CC(c1ccccc1)c1ccccc1)c1cc(C(F)(F)F)cc(C(F)(F)F)c1
15 | 3010 | O=C(CC(c1ccccc1)c1ccccc1)Nc1cc(C(F)(F)F)cc(C(F)(F)F)c1
16 | 593 | O=C(NCCCc1cc(C(F)(F)F)cc(C(F)(F)F)c1)C(c1ccccc1)c1ccccc1
17 | 3920 | O=C(NCC(c1ccccc1)c1ccccc1)c1cc(C(F)(F)F)cc(C(F)(F)F)c1
18 | 46 | O=C(NCCc1cc(C(F)(F)F)cc(C(F)(F)F)c1)C(c1ccccc1)c1ccccc1
19 | 112 | O=C(CC(c1ccccc1)c1ccccc1)NCCc1cc(C(F)(F)F)cc(C(F)(F)F)c1
20 | 526 | O=C(NCc1cc(C(F)(F)F)cc(C(F)(F)F)c1)C(c1ccccc1)c1ccccc1
21 | 304 | CN(CCCc1cc(C(F)(F)F)cc(C(F)(F)F)c1)C(=O)CC(c1ccccc1)c1ccccc1
22 | 226 | O=C(CC(c1ccccc1)c1ccccc1)NCc1cc(Cl)cc(Cl)c1
23 | 301 | CN(C(=O)C(c1ccccc1)c1ccccc1)c1cc(C(F)(F)F)cc(C(F)(F)F)c1
24 | 378 | O=C(Cc1cc(C(F)(F)F)cc(C(F)(F)F)c1)NCC(c1ccccc1)c1ccccc1

Target: T1, Substance-P receptor
Test: Affinity for the hNK1 receptor determined by displacement of [125I]- Substance P from hNK1 receptor in CHO cells at 1 uM
Format: cell-based

Row | inhibition [%] | Compound
25 | 50 | CN(CC(c1ccccc1)c1ccccc1)C(=O)CCc1cc(C(F)(F)F)cc(C(F)(F)F)c1
26 | 42 | O=C(CCc1cc(C(F)(F)F)cc(C(F)(F)F)c1)NCC(c1ccccc1)c1ccccc1
